The supplement of paper PMC10307832

Columns and labels:
Test in all cases: relative viability (nuclei count vs DMSO), 5 days (fraction); higher = more cells survive
[1] = test system: 201T
Method in brief: (§1)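 After 5 days of treatment, lung cancer cells in 1536-well plates were fixed and stained in a single step (final 0.05% Triton X-100, 1% formaldehyde, 1 ug/ml Hoechst) and their nuclei counted on 4× images. Treatment had been applied by pin tool the day after seeding as one drug alone or as a fixed anchor-drug dose with five library-drug doses (not always all listed) in √10 steps. Relative viability is the nuclei count of treated wells divided by that of vehicle wells, and values are medians of duplicate plates.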

[2] = test system: BEN
Method in brief: as §1

[3] = test system: CAL-12T
Method in brief: as §1

[4] = test system: HCC-78
Method in brief: as §1

[5] = test system: HOP-62
Method in brief: as §1

[6] = test system: LCLC-97TM1
Method in brief: as §1

[7] = test system: LOU-NH91
Method in brief: as §1

[8] = test system: NCI-H1355
Method in brief: as §1

[9] = test system: NCI-H1395
Method in brief: as §1

[10] = test system: NCI-H1563
Method in brief: as §1

[11] = test system: NCI-H1651
Method in brief: as §1

[12] = test system: NCI-H1793
Method in brief: as §1

[13] = test system: NCI-H1915
Method in brief: as §1

[14] = test system: NCI-H1944
Method in brief: as §1

[15] = test system: NCI-H2126
Method in brief: as §1

[16] = test system: NCI-H2347
Method in brief: as §1

[17] = test system: NCI-H3122
Method in brief: as §1

[18] = test system: NCI-H322M
Method in brief: as §1

[19] = test system: NCI-H441
Method in brief: as §1

[20] = test system: NCI-H650
Method in brief: as §1

[21] = test system: NCI-H838
Method in brief: as §1

[22] = test system: SK-LU-1
Method in brief: as §1

[23] = test system: SW 1573
Method in brief: as §1

For CN1CCN(CCOc2cc(OC3CCOCC3)c3c(Nc4c(Cl)ccc5c4OCO5)ncnc3c2)CC1 [Saracatinib] + C[C@]1(O)C[C@@H](c2nc(-c3ccc4ccc(-c5ccccc5)nc4c3)c3c(N)nccn32)C1 [Linsitinib] (partner 1 µM), the relative viability ([1]; first compound 0.02 µM) was 1.05, the relative viability ([1]; first compound 0.2 µM) was 0.927 and the relative viability ([1]; first compound 0.6325 µM) was 0.91. For the same compound, the relative viability ([1]; first compound 2 µM) was 0.809, the relative viability ([2]; first compound 0.02 µM) was 0.991 and the relative viability ([2]; first compound 0.2 µM) was 0.914. The relative viability ([2]; first compound 0.6325 µM) was 1.15, the relative viability ([2]; first compound 2 µM) was 0.64 and the relative viability ([3]; first compound 0.02 µM) was 0.805. The relative viability ([3]; first compound 0.2 µM) was 0.776, the relative viability ([3]; first compound 0.6325 µM) was 0.863 and the relative viability ([3]; first compound 2 µM) was 1.03. It also gave a relative viability ([4]; first compound 0.02 µM) of 0.52, a relative viability ([4]; first compound 0.2 µM) of 0.505 and a relative viability ([4]; first compound 0.6325 µM) of 0.753. For the same compound, the relative viability ([4]; first compound 2 µM) was 0.497, the relative viability ([5]; first compound 0.02 µM) was 1.02 and the relative viability ([5]; first compound 0.2 µM) was 0.731. For the same compound, the relative viability ([5]; first compound 0.6325 µM) was 1.35, the relative viability ([5]; first compound 2 µM) was 1.01 and the relative viability ([6]; first compound 0.02 µM) was 0.17. The relative viability ([6]; first compound 0.2 µM) was 0.127, the relative viability ([6]; first compound 0.6325 µM) was 0.197 and the relative viability ([6]; first compound 2 µM) was 0.272. The relative viability ([7]; first compound 0.02 µM) was 0.901, the relative viability ([7]; first compound 0.2 µM) was 0.603 and the relative viability ([7]; first compound 0.6325 µM) was 0.594. For the same compound, the relative viability ([7]; first compound 2 µM) was 0.518, the relative viability ([8]; first compound 0.02 µM) was 0.793 and the relative viability ([8]; first compound 0.2 µM) was 0.767. It also gave a relative viability ([8]; first compound 0.6325 µM) of 0.832, a relative viability ([8]; first compound 2 µM) of 0.615 and a relative viability ([9]; first compound 0.02 µM) of 1.08. It also gave a relative viability ([9]; first compound 0.2 µM) of 0.995, a relative viability ([9]; first compound 0.6325 µM) of 1.27 and a relative viability ([9]; first compound 2 µM) of 0.876. It also gave a relative viability ([10]; first compound 0.02 µM) of 1.09, a relative viability ([10]; first compound 0.2 µM) of 1.16 and a relative viability ([10]; first compound 0.6325 µM) of 1.05. It also gave a relative viability ([10]; first compound 2 µM) of 0.891, a relative viability ([11]; first compound 0.02 µM) of 0.944 and a relative viability ([11]; first compound 0.2 µM) of 0.661. It also gave a relative viability ([11]; first compound 0.6325 µM) of 0.807, a relative viability ([11]; first compound 2 µM) of 0.67 and a relative viability ([12]; first compound 0.02 µM) of 0.876. The relative viability ([12]; first compound 0.2 µM) was 0.447, the relative viability ([12]; first compound 0.6325 µM) was 0.993 and the relative viability ([12]; first compound 2 µM) was 0.783. For the same compound, the relative viability ([13]; first compound 0.02 µM) was 1.1, the relative viability ([13]; first compound 0.2 µM) was 1.03 and the relative viability ([13]; first compound 0.6325 µM) was 1.07. For the same compound, the relative viability ([13]; first compound 2 µM) was 1.07, the relative viability ([14]; first compound 0.02 µM) was 1.21 and the relative viability ([14]; first compound 0.6325 µM) was 0.971. It also gave a relative viability ([14]; first compound 2 µM) of 0.704, a relative viability ([15]; first compound 0.02 µM) of 0.74 and a relative viability ([15]; first compound 0.2 µM) of 0.649. The relative viability ([15]; first compound 0.6325 µM) was 0.612, the relative viability ([15]; first compound 2 µM) was 0.549 and the relative viability ([16]; first compound 0.02 µM) was 0.916. The relative viability ([16]; first compound 0.2 µM) was 0.902, the relative viability ([16]; first compound 0.6325 µM) was 1.13 and the relative viability ([16]; first compound 2 µM) was 0.936. The relative viability ([17]; first compound 0.02 µM) was 1.05, the relative viability ([17]; first compound 0.6325 µM) was 0.842 and the relative viability ([17]; first compound 2 µM) was 0.767. It also gave a relative viability ([18]; first compound 0.02 µM) of 0.999, a relative viability ([18]; first compound 0.2 µM) of 0.962 and a relative viability ([18]; first compound 0.6325 µM) of 0.924. For the same compound, the relative viability ([18]; first compound 2 µM) was 0.569, the relative viability ([19]; first compound 0.02 µM) was 0.508 and the relative viability ([19]; first compound 0.2 µM) was 0.515. The relative viability ([19]; first compound 0.6325 µM) was 0.682, the relative viability ([19]; first compound 2 µM) was 0.604 and the relative viability ([20]; first compound 0.02 µM) was 0.94. It also gave a relative viability ([20]; first compound 0.2 µM) of 0.885, a relative viability ([20]; first compound 0.6325 µM) of 0.838 and a relative viability ([20]; first compound 2 µM) of 0.98. It also gave a relative viability ([21]; first compound 0.02 µM) of 0.997, a relative viability ([21]; first compound 0.2 µM) of 0.871 and a relative viability ([21]; first compound 0.6325 µM) of 0.749. For the same compound, the relative viability ([21]; first compound 2 µM) was 0.838, the relative viability ([22]; first compound 0.02 µM) was 0.92 and the relative viability ([22]; first compound 0.2 µM) was 0.752. It also gave a relative viability ([22]; first compound 0.6325 µM) of 0.639, a relative viability ([22]; first compound 2 µM) of 0.374 and a relative viability ([23]; first compound 0.02 µM) of 0.846. For the same compound, the relative viability ([23]; first compound 0.2 µM) was 0.673, the relative viability ([23]; first compound 0.6325 µM) was 0.699 and the relative viability ([23]; first compound 2 µM) was 0.64.
